# According to patent US20090176817A1, “Method of Treatment of Diarrhea-Predominant Irritable Bowel Syndrome in a Subject” (priority 2005, published 2009):
# System: diarrhea-predominant IBS subjects
# Assay: Study S241.3.011: weekly diary questions on adequate relief
# Assay type: in vivo, human
# Conditions: 2 mg TID, ITT; for Number of subjects who were responders during the three-month treatment period: Adequate relief of IBS symptoms / Number of subjects who were responders during the three-month treatment period: Adequate relief of abdominal pain/discomfort / Number of subjects who were responders during the three-month treatment period: Adequate relief of abnormal bowel habits: observed case
# Experimental: Study S241.3.011 was a Phase III, double-blind, placebo-controlled, randomized, multinational study to investigate the safety and efficacy of 2 mg TID of cilansetron for a period of 12 weeks followed by a rerandomized, placebo-controlled four-week treatment period, in diarrhea-predominant IBS subjects. The study was conducted in six countries including the US. A total of 2115 subjects consented to participate, and 770 subjects were randomized. A total of 746 subjects were analyzed for efficacy and 755 subjects were analyzed for safety. Diagnosis and main criteria for inclusion were IBS subjects satisfying the Rome I criteria (1992); the diarrhea predominant sub-population of the Rome II criteria; and a minimum abdominal pain/discomfort, stool frequency and consistency determined during the run-in period. Subjects were treated with cilansetron 2 mg tablets given orally TID or matching placebo tablets given orally TID for 12 weeks followed by a rerandomized, placebo-controlled four-week treatment period.
# The primary efficacy parameter was the number of months that a subject was a responder for IBS symptoms (abdominal pain, abdominal discomfort, abnormal bowel habits) over the 12-week treatment period. A responder for a month (monthly responder) was defined as a subject who answered the weekly question with “yes” at least twice for that month. The two main secondary efficacy parameters were the monthly responder rates based on the “adequate relief” questions regarding abdominal pain/discomfort and abnormal bowel habits during the 12-week treatment period. The overall response rate and responder rate for the weekly diary questions on adequate relief at each month and all months, the adequate relief rate, the number of subjects with adequate relief by week, daily diary questions, IBS-QOL scores, and the interruption of activities were also assessed. Safety was evaluated by physical examination, ECG, vital signs, laboratory evaluations, concomitant medications, and AEs.
# Subjects who were initially randomized to the cilansetron 2 mg TID group and rerandomized to placebo, will be referred to as the C/P treatment group; subjects initially randomized to the placebo group and rerandomized to placebo will be referred to as the P/P treatment group; the P/C and C/C treatment group nomenclature follow the same principle. Of the 591 subjects who completed the three-month treatment period, 576 subjects were rerandomized and thus divided into the following treatment groups: 150 subjects in the C/C treatment group, 140 subjects in the C/P treatment group, 136 subjects in the P/C treatment group, and 150 subjects in the P/P treatment group. Of the 576 subjects rerandomized, a higher percentage of subjects in the C/C treatment group (99%) completed the study compared with the C/P (95%), P/C (93%), and the P/P (95%) treatment groups.
# Studies S24 1.3.OO6, S24 1.3.0 1 1, and S24 1.3.009 used the following efficacy measurements: • The subjects answered the following three questions with “yes” or “no” using a phone diary at the end of each week: • a) During the last week, did you experience adequate relief of your IBS symptoms, such as abdominal pain, abdominal discomfort, abnormal bowel habits? • b) During the last week, did you experience adequate relief of your abdominal pain and/or discomfort? • c) During the last week, did you experience adequate relief of your abnormal bowel habits? • The subjects rated the following symptoms using the phone diary at the end of each day: • abdominal pain/discomfort (five-point scale); • stool consistency (seven-point Bristol Stool Scale); • stool frequency (number of bowel movements each day); • urgency (five-point scale); • straining (yes or no); • feeling of incomplete defecation (yes or no); • bloating or feeling of abdominal distension (five-point scale). • In Studies S241 A006 and S241.3.009, subjects completed the IBS-QOL Survey at Baseline (Day 1) and at the end of treatment. […]
# [1] = Duration of IBS: >24 months to ≦48 months, monthly LOCF imputation
# [2] = Duration of IBS: >24 months to ≦48 months
# [3] = Duration of IBS: >48 months to ≦120 months, monthly LOCF imputation
# [4] = Duration of IBS: >48 months to ≦120 months
# [5] = Duration of IBS: >120 months, monthly LOCF imputation
# [6] = Duration of IBS: ≦24 months, monthly LOCF imputation
# [7] = Female subjects, three-month treatment period, monthly LOCF
compound,measurement,setting,value
"Cc1nccn1C[C@H]1CCc2c(c3cccc4c3n2CCC4)C1=O [Cilansetron, (R)-(−)-4,5,6,8,9,10-hexahydro-10-[(2-methyl-1H-imidazol-1-yl)methyl]-11H-pyrido-[3,2,1-jk]-carbazol-11-one]","Number of months a subject was a responder during the three-month treatment period: Abnormal bowel habits, Two months",[1],10 (14) n (%)
same,"Number of months a subject was a responder during the three-month treatment period: Abnormal bowel habits, Zero months",[1],20 (28) n (%)
same,"Number of months a subject was a responder during the three-month treatment period: IBS symptoms, One month",[1],7 (10) n (%)
same,"Number of months a subject was a responder during the three-month treatment period: IBS symptoms, Three months",[1],32 (44) n (%)
same,"Number of months a subject was a responder during the three-month treatment period: IBS symptoms, Two months",[1],16 (22) n (%)
same,"Number of months a subject was a responder during the three-month treatment period: IBS symptoms, Zero months",[1],17 (24) n (%)
same,Number of subjects who were responders during the three-month treatment period: Adequate relief of IBS symptoms,[2],44 (61) n (%)
same,Number of subjects who were responders during the three-month treatment period: Adequate relief of abdominal pain/discomfort,[2],44 (61) n (%)
same,Number of subjects who were responders during the three-month treatment period: Adequate relief of abnormal bowel habits,[2],43 (60) n (%)
same,"Number of months a subject was a responder during the three-month treatment period: Abdominal pain/discomfort, One month",[3],15 (11) n (%)
same,"Number of months a subject was a responder during the three-month treatment period: Abdominal pain/discomfort, Three months",[3],61 (46) n (%)
same,"Number of months a subject was a responder during the three-month treatment period: Abdominal pain/discomfort, Two months",[3],23 (17) n (%)
same,"Number of months a subject was a responder during the three-month treatment period: Abdominal pain/discomfort, Zero months",[3],34 (26) n (%)
same,"Number of months a subject was a responder during the three-month treatment period: Abnormal bowel habits, One month",[3],15 (11) n (%)
same,"Number of months a subject was a responder during the three-month treatment period: Abnormal bowel habits, Three months",[3],50 (38) n (%)
same,"Number of months a subject was a responder during the three-month treatment period: Abnormal bowel habits, Two months",[3],29 (22) n (%)
same,"Number of months a subject was a responder during the three-month treatment period: Abnormal bowel habits, Zero months",[3],39 (29) n (%)
same,"Number of months a subject was a responder during the three-month treatment period: IBS symptoms, One month",[3],19 (14) n (%)
same,"Number of months a subject was a responder during the three-month treatment period: IBS symptoms, Three months",[3],50 (38) n (%)
same,"Number of months a subject was a responder during the three-month treatment period: IBS symptoms, Two months",[3],26 (20) n (%)
same,"Number of months a subject was a responder during the three-month treatment period: IBS symptoms, Zero months",[3],38 (29) n (%)
same,Number of subjects who were responders during the three-month treatment period: Adequate relief of IBS symptoms,[4],69 (52) n (%)
same,Number of subjects who were responders during the three-month treatment period: Adequate relief of abdominal pain/discomfort,[4],79 (59) n (%)
same,Number of subjects who were responders during the three-month treatment period: Adequate relief of abnormal bowel habits,[4],69 (52) n (%)
same,"Number of months a subject was a responder during the three-month treatment period: Abdominal paint/discomfort, One month",[5],13 (13) n (%)
same,"Number of months a subject was a responder during the three-month treatment period: Abdominal paint/discomfort, Three months",[5],39 (38) n (%)
same,"Number of months a subject was a responder during the three-month treatment period: Abdominal paint/discomfort, Two months",[5],18 (18) n (%)
same,"Number of months a subject was a responder during the three-month treatment period: Abdominal paint/discomfort, Zero months",[5],32 (31) n (%)
same,"Number of months a subject was a responder during the three-month treatment period: Abnormal bowel habits, One month",[5],17 (17) n (%)
same,"Number of months a subject was a responder during the three-month treatment period: Abnormal bowel habits, Three months",[5],37 (36) n (%)
same,"Number of months a subject was a responder during the three-month treatment period: Abnormal bowel habits, Two months",[5],12 (12) n (%)
same,"Number of months a subject was a responder during the three-month treatment period: Abnormal bowel habits, Zero months",[5],36 (35) n (%)
same,"Number of months a subject was a responder during the three-month treatment period: IBS symptoms, One month",[5],17 (17) n (%)
same,"Number of months a subject was a responder during the three-month treatment period: IBS symptoms, Three months",[5],38 (37) n (%)
same,"Number of months a subject was a responder during the three-month treatment period: IBS symptoms, Two months",[5],12 (12) n (%)
same,"Number of months a subject was a responder during the three-month treatment period: IBS symptoms, Zero months",[5],35 (34) n (%)
same,Number of subjects who were responders during the three-month treatment period: Adequate relief of IBS symptoms,Duration of IBS: >120 months,48 (47) n (%)
same,Number of subjects who were responders during the three-month treatment period: Adequate relief of abdominal pain/discomfort,Duration of IBS: >120 months,55 (54) n (%)
same,Number of subjects who were responders during the three-month treatment period: Adequate relief of abnormal bowel habits,Duration of IBS: >120 months,46 (45) n (%)
same,"Number of months a subject was a responder during the three-month treatment period: Abdominal pain/discomfort, One month",[6],7 (10) n (%)
same,"Number of months a subject was a responder during the three-month treatment period: Abdominal pain/discomfort, Three months",[6],27 (39) n (%)
same,"Number of months a subject was a responder during the three-month treatment period: Abdominal pain/discomfort, Two months",[6],16 (23) n (%)
same,"Number of months a subject was a responder during the three-month treatment period: Abdominal pain/discomfort, Zero months",[6],20 (29) n (%)
same,"Number of months a subject was a responder during the three-month treatment period: Abnormal bowel habits, One month",[6],8 (11) n (%)
same,"Number of months a subject was a responder during the three-month treatment period: Abnormal bowel habits, Three months",[6],30 (43) n (%)
same,"Number of months a subject was a responder during the three-month treatment period: Abnormal bowel habits, Two months",[6],15 (21) n (%)
same,"Number of months a subject was a responder during the three-month treatment period: Abnormal bowel habits, Zero months",[6],17 (24) n (%)
same,"Number of months a subject was a responder during the three-month treatment period: IBS symptoms, One month",[6],11 (16) n (%)
same,"Number of months a subject was a responder during the three-month treatment period: IBS symptoms, Three months",[6],28 (40) n (%)
same,"Number of months a subject was a responder during the three-month treatment period: IBS symptoms, Two months",[6],16 (23) n (%)
same,"Number of months a subject was a responder during the three-month treatment period: IBS symptoms, Zero months",[6],15 (21) n (%)
same,Number of subjects who were responders during the three-month treatment period: Adequate relief of IBS symptoms,Duration of IBS: ≦24 months,45 (64) n (%)
same,Number of subjects who were responders during the three-month treatment period: Adequate relief of abdominal pain/discomfort,Duration of IBS: ≦24 months,43 (61) n (%)
same,Number of subjects who were responders during the three-month treatment period: Adequate relief of abnormal bowel habits,Duration of IBS: ≦24 months,45 (64) n (%)
same,Number of months a subject was a responder: One month (Abdominal pain/discomfort),[7],30 (11) n (%)
same,Number of months a subject was a responder: One month (Abnormal bowel habits),[7],34 (13) n (%)
same,Number of months a subject was a responder: One month (IBS symptoms),[7],35 (13) n (%)
same,Number of months a subject was a responder: Three months (Abdominal pain/discomfort),[7],101 (39) n (%)
